The experiment concerns mildly to moderately active ulcerative colitis. The experiment is described as follows: Randomized, double-dummy, active controlled 8-week clinical trial in ulcerative colitis. The format is in vivo, human. As to conditions: week 8. On the procedure: 120 patients with colonoscopy-confirmed mildly to moderately active ulcerative colitis were assigned to two groups (60 patients/group). […] All other medications were excluded. The therapeutic effects were assessed biweekly using a scale similar to the partial Mayo Scoring System, and the clinical symptom score reduction (≧50% reduction in symptoms) was calculated. Scores were then retrospectively calculated using the standard partial Mayo scores (PMS), clinical response (improvement ≧2 points or final score of 0) and remission (≦1 PMS score at week 8). Colonoscopies at the beginning and at the end of treatment were rated with a modified Baron score, and biopsies taken during colonoscopy were graded histologically with a scale of 0-3.

The record followed here is patent US8557308B2, “Andrographis paniculata extract” (Nutrition Science Partners Limited, priority 2007, dated 2013).

Each structure is given as a SMILES string.

Regarding `Nc1ccc(O)c(C(=O)O)c1` [Etiasa, 5-amino-2-hydroxybenzoic acid], the “clinical response rate (partial Mayo score improvement ≧2 points or final score of 0)” value was 58%. Moreover, the “patients with Baron scores reduced by at least two grades” value (colonoscopy) is listed as 42%.
